Results taken from article PMC5571211 (Scientific Reports, 2017).

Legend:
[1] = test system: 5-LOX product formation (FLAP) in human neutrophils; assay: 5-LOX product formation in intact human neutrophils stimulated with Ca2+-ionophore A23187; type: cell-based; details: 5 h, read-out: IC50, formation of LTB4 and its isomers and of 5-H(p)ETE (5-LOX product formation); intact human neutrophils (PMNL), Ca2+-ionophore A23187, no AA supplementation
Procedure: After elution with methanol, samples were analyzed by RP-HPLC using a C-18 Radial-PAK column (Waters, Eschborn, Germany).

[2] = target: T1, mPGES-1 (Homo sapiens, UniProt O14684); details: cited from earlier work
T1 construct: A549 cells were cultivated in DMEM medium containing FCS (2%) and IL-1β (2 ng/mL) for 72 h; endogenous in cells; host or cells: A549 cells, IL-1β-induced, microsomal fraction
T1 sequence (O14684 1-152): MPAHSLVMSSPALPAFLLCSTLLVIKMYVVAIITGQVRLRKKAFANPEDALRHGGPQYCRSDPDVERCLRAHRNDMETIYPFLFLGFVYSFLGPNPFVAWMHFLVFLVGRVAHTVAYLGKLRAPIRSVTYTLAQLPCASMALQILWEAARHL

[3] = target: T1, mPGES-1; assay: mPGES-1 activity in microsomes of IL-1β-stimulated A549 cells; type: biochemical; details: cell-free, up to 10 µM
Procedure: To perform the analysis of microsomal PGE2 synthase (mPGES)-1 activity, microsomal preparations of A549 cells were obtained as described before. Briefly, A549 cells were cultivated in DMEM medium containing FCS (2%) and IL-1β (2 ng/mL) for 72 h (37 °C, 5% CO2). Cells were harvested and resuspended in homogenization buffer consisting of potassium phosphate (0.1 M, pH 7.4), phenylmethanesulfonyl fluoride (1 mM), soybean trypsin inhibitor (60 µg/mL), leupeptin (1 µg/mL), glutathione (2.5 mM), and sucrose (250 mM). After freezing the cells in liquid nitrogen and sonication (3 × 20 s), a differential centrifugation at 10,000 g (10 min, 4 °C) and 174,000 × g (60 min, 4 °C) was performed and pellets were resuspended in homogenization buffer. […] After stimulation (1 min, 4 °C) with 20 µM PGH2 the reaction was terminated by addition of stop solution containing FeCl3 (40 mM), citric acid (80 mM), and 11β-PGE2 (10 µM as internal standard) and analyzed for PGE2 product formation by RP-HPLC as reported before.

[4] = target: T2, human recombinant LTA4-H (Homo sapiens, UniProt P09960); assay: LTA4 hydrolase activity, co-incubation of isolated 5-LOX and LTA4-H; type: biochemical; details: diflapolin up to 10 µM, AUDA 10 µM, SC57461A 0.3 µM, zileuton 3 µM
T2 construct: gift of Dr. E. Proschak, Goethe University, Frankfurt
T2 sequence (P09960 2-611 limits assumed): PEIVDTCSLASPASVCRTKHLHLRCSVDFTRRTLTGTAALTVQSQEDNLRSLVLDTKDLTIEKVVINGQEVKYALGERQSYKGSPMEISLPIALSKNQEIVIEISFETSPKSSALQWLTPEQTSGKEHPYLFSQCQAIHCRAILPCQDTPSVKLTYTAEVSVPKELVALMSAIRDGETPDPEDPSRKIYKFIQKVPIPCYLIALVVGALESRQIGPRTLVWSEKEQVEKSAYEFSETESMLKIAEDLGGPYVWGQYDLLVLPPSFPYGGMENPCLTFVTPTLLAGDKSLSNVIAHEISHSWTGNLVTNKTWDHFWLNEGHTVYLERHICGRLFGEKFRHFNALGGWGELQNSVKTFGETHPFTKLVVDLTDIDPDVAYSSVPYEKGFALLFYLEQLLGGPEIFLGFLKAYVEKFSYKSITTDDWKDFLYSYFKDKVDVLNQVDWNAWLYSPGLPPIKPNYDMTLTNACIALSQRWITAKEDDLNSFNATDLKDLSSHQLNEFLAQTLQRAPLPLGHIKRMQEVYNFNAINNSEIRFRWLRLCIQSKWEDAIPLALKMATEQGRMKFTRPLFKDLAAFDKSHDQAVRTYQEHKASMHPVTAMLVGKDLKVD
Procedure: In order to determine the activity of LTA4-H, aliquots of human recombinant 5-LOX (0.5 µg) and 10 µg of human recombinant LTA4-H (kindly provided by Dr. E. Proschak, Goethe University, Frankfurt, Germany) were suspended in 1 mL PBS containing 1 mM EDTA and pre-incubated with test compounds or vehicle (0.1% DMSO) for 10 min on ice. The specific LTA4-H inhibitor SC57461A (0.3 µM) was used as reference drug. Subsequently, incubations were stimulated with 20 µM AA and 2 mM CaCl2 for additional 10 min at 37 °C. The reaction was stopped by 1 volume ice-cold methanol, 530 µL acidified PBS and 200 ng of PGB1 as internal standard were added and subjected to solid phase extraction. All LTB4 isomers were analyzed by HPLC as described above.

[5] = target: T3, purified ovine COX-1 (Ovis aries, UniProt P05979); assay: COX-1 activity, cell-free (12-HHT formation); type: biochemical; details: 10 µM
T3 construct: purchased Cayman Chemical (Biomol, Hamburg, Germany)
T3 sequence (P05979 25-600): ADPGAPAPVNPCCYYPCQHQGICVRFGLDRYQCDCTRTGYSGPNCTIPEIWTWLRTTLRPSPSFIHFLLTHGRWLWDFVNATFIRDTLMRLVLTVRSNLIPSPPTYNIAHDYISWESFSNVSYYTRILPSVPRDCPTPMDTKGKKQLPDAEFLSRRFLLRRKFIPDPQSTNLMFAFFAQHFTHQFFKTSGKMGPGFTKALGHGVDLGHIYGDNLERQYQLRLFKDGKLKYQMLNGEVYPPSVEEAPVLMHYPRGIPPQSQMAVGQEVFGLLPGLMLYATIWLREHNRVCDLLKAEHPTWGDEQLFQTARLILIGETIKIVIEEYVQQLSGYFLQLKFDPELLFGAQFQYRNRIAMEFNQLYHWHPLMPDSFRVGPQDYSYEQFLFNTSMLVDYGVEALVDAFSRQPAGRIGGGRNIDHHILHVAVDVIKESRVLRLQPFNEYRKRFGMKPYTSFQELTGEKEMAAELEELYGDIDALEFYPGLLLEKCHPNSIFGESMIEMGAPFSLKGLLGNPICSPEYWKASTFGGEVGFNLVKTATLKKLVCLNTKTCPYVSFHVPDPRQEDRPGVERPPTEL
Procedure: COX activity was assayed by using purified ovine COX-1 and recombinant human COX-2, respectively. Enzymes were diluted in Tris buffer (100 mM, pH 8) supplemented with glutathione (5 mM), EDTA (100 µM) and hemoglobin (5 µM) to a final concentration of 50 U/mL (COX-1) or 20 U/mL (COX-2) and pre-incubated with test compounds or vehicle (0.1% DMSO) for 5 min at RT. After 30 sec at 37 °C, reactions were started with 5 µM AA (COX-1) or 2 µM AA (COX-2) and stopped after 5 min at 37 °C by addition of one volume of ice-cold methanol. Solid phase extraction was performed as described above after addition of 200 ng of internal PGB1 standard and COX product formation was determined by analysis of 12-HHT formation as reported before.

CC(C)c1ccc2c(c1)c(SC(C)(C)C)c(CC(C)(C)C(=O)O)n2Cc1ccc(Cl)cc1 [MK886, 3-[1-(4-chlorobenzyl)-3-t-butyl-thio-5-isopropylindol-2-yl]-2,2 - dimethylpropanoic acid]
IC50 [1]: 10 to 14 nM | inhibition of MAPEG family member mPGES-1 [2]: inhibit

Cc1cc(OCc2nc3ccccc3s2)ccc1NC(=O)Nc1ccc(Cl)c(Cl)c1 [diflapolin, N-[4-(benzothiazol-2-ylmethoxy)-2-methylphenyl]-N′-(3,4-dichlorophenyl)urea]
inhibition of mPGES-1 activity [3]: failed to inhibit | effect on LTA4-H activity (LTB4 formation) [4]: failed to inhibit | inhibition of COX-1 activity [5]: did not significantly inhibit
